Measured values as given in paper PMC4120117 (Bioorganic & medicinal chemistry letters, 2014).

System: three MycP1 variants
Format: biochemical, M. tuberculosis, M. thermoresistible, M. smegmatis

Substance: HAlaValLysAlaAlaB(OH)2 [Compound 1]
- inhibition (in words): poorer inhibition than compound 2
